# Data from publication PMC6539231, “4,5-Diaryl 3(2H)Furanones: Anti-Inflammatory Activity and Influence on Cancer Growth” (Molecules, 2019).
# Entries after “also recorded” stand apart in the source; their conditions may differ.
# Tests used:
# ovine COX-1 = biological target: T1, ovine COX-1 (Ovis aries, UniProt P05979); assay: In vitro COX-1 inhibition (Cayman COX Inhibitor Screening Assay kit); assay type: biochemical; settings: for % Inhibition (COX-1): Compound concentration 50 μΜ, arachidonic acid 0.1 μM
# T1 construct: purchased Cayman Chemical Co., Ann Arbor, MI, USA
# T1 sequence (P05979 25-600): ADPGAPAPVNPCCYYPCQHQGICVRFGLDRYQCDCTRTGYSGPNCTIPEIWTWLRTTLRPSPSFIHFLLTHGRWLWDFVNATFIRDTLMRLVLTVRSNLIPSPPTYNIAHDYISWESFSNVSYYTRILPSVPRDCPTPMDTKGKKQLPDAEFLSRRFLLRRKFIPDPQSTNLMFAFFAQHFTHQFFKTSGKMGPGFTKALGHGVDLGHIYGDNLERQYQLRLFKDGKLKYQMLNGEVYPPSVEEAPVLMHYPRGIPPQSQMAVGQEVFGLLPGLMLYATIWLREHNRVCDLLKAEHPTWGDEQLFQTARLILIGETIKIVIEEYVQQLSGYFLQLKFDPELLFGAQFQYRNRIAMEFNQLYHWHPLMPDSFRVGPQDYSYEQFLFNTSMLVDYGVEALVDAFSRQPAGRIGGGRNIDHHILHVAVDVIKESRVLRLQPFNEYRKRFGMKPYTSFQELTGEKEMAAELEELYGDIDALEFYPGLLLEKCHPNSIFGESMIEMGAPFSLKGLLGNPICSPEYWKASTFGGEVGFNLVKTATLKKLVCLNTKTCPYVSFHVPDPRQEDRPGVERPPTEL
# Experimental: (§1) The COX-1 and COX-2 activities of the compounds were measured using ovine COX-1 and human recombinant COX-2 enzymes included in the “COX Inhibitor Screening Assay” kit provided by Cayman (Cayman Chemical Co., Ann Arbor, MI, USA) as reported previously
# human recombinant COX-2 = biological target: T2, human recombinant COX-2 (Homo sapiens, UniProt P35354); assay: In vitro COX-2 inhibition (Cayman COX Inhibitor Screening Assay kit); assay type: biochemical; settings: for % Inhibition (COX-2): Compound concentration 50 μΜ, arachidonic acid 0.1 μM
# T2 construct: purchased Cayman Chemical Co., Ann Arbor, MI, USA
# T2 sequence (P35354 18-604): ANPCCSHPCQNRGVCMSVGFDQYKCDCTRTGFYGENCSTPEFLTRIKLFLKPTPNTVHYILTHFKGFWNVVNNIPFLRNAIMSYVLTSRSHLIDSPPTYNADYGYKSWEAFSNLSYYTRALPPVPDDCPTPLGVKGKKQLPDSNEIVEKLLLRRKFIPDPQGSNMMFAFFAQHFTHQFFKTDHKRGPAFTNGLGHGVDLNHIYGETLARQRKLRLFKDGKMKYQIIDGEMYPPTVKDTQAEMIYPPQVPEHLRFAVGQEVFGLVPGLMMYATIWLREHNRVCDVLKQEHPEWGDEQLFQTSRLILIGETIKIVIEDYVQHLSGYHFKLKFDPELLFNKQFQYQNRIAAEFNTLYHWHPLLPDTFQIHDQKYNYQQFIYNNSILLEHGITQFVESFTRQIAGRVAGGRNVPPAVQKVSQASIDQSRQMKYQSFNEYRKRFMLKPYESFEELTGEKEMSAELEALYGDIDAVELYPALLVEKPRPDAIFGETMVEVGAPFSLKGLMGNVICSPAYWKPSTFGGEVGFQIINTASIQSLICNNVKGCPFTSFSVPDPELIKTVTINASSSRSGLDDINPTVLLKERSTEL
# Experimental: as §1
# [1] = tested on: carrageenan mice paw oedema; assay: Carrageenin-induced mouse paw edema; assay type: in vivo, mice (AKR); settings: Mus musculus, ip; Dose 0.1 µmol/g; intraperitoneally, simultaneously with carrageenin; read-out: CPE, %
# Experimental: From the data of Table 7 it is obvious that anti-inflammatory activity of alkylsulfones and sulfoxides of furan-3(2H)-ones, including annelated derivatives are very similar.
# The anti-inflammatory activity of compounds was performed using the carrageenan mice paw oedema assay. Animal of both sex (AKR), with exception of pregnant females were housed under standard conditions, receiving only water during the experimental period. […] The detailed description of the whole experiment reported previously. All the biological experiments were carried out in full compliance with the European Convention for the Protection of Vertebrate Animals used for Experimental or Other Scientific Purposes (ETS NO 123, Strasbourg, 03/18/1986): Strasbourg (France). European Treaty Series, № 123, March 18, 1986. 11 P. The project identification code and date of approval is 350880/3468 of 15-12-2014, University of Thessaloniki.
# MCF-7 cells [2] = assay: Growth inhibition assay, MCF-7 cells; assay type: cell-based, human; settings: Homo sapiens, MCF7, 48 h, 48 h exposure
# Experimental: (§2) The cells were grown in the presence of each of the selected compounds as well as of the two well-known anti-neoplastic drugs gefitinib and 5-fluorouracil.
# (§3) Each cell culture was treated appropriately, ensuring that DMSO concentration was kept below ≤ 0.2% (v/v) after every dilution. Cells were seeded in 24-well plates, at an initial density of 5 × 10^4 cells/mL. […] Cells were allowed to grow for additional 48 h before being harvested by trypsinization and subsequently counted (cell density; number of cells/mL) using a hemocytometer (Neubauer counting chamber) and optical microscopy. Cell growth was expressed as a percentage relative to that for the untreated control culture (only cells and medium, CTL).
# MCF-7 cells [3] = assay: Combination (synergy) growth assay in MCF-7 cells, Combination Index; assay type: cell-based, human; settings: MCF-7, 48 h; for Combination Effect with 5-fluorouracil / CI, combination with 5-fluorouracil: + 0.3 μM 5-fu; for % Cell Growth, combination with 5-fluorouracil: + 0.3 μM 5-fu (21.3 μM 1h, 2.9 μM 1g, 3.8 μM x-1, 29 μM cel); for CI, combination with 5-fluorouracil / CI, combination with gefitinib: CI <1 synergy, >1 antagonism; for Combination Effect with gefitinib / CI, combination with gefitinib: + 70 μM gef; for % Cell Growth, combination with gefitinib: + 70 μM gef (27.5 μM 1h, 10 μM 1g, 10 μM x-1, 29 μM cel)
# Experimental: In addition, exposure of the MCF-7 cells to each of the compounds in combination with each one of the two anti-neoplastic drugs was performed in order to study the synergistic effect of the compounds. The results are shown in Table 9 and Figure 5 and Figure 6.
# MCF-7 cells [4] = assay: as above; assay type: cell-based, human; settings: MCF-7, 48 h; for Combination Effect with celecoxib / CI, combination with celecoxib: + 29 μM cel; for % Cell Growth, combination with celecoxib: + 29 μM cel (21.3 μM 1h, 2.9 μM 1g, 3.8 μM x-1); for CI, combination with celecoxib: CI <1 synergy, >1 antagonism
# HSC-3 cells = assay: Growth inhibition assay, HSC-3 cells; settings: for HSC-3 % Cell Growth: Compound concentration: 10μΜ; for IC50: Homo sapiens, HSC-3, 48 h, read-out: HSC-3 IC50 Values
# Experimental: as §2, §3
SMILES,% Inhibition (COX-1) (ovine COX-1) [%],IC50 (ovine COX-1; read-out: Experimental IC50 COX-1) [µM],% Inhibition (COX-2) (human recombinant COX-2) [%],IC50 (human recombinant COX-2; read-out: Experimental IC50 COX-2) [µM],inhibition in vivo at 0.1 µmol/g [1] [%],IC50 (MCF-7 cells [2]) [µM],Combination Effect with 5-fluorouracil (MCF-7 cells [3]),"% Cell Growth, combination with 5-fluorouracil (MCF-7 cells [3]) [%]","CI, combination with 5-fluorouracil (MCF-7 cells [3])",Combination Effect with gefitinib (MCF-7 cells [3]),"% Cell Growth, combination with gefitinib (MCF-7 cells [3]) [%]","CI, combination with gefitinib (MCF-7 cells [3])",Combination Effect with celecoxib (MCF-7 cells [4]),"% Cell Growth, combination with celecoxib (MCF-7 cells [4]) [%]","CI, combination with celecoxib (MCF-7 cells [4])",HSC-3 % Cell Growth (HSC-3 cells) [%],IC50 (HSC-3 cells) [µM],HSC-3 growth inhibition (HSC-3 cells; concentration of 10 μΜ) [%],melting point [°C]
"C[S+]([O-])c1ccc(C2=C(c3ccc(F)cc3)OC(C)(C)C2=O)cc1 (stereo not shown) [1g, 5-(4′-Fluorophenyl) 2,2-dimethyl-4-[4-(methylsulfinyl)phenyl]-furan-3(2H)-one]",73,2.8,0,> 50,49,10,synergism,19.1,0.058 ± 0.010 <1,synergism,36.5,0.780 ± 0.200 < 1,synergism,36.6,0.750 ± 0.025 < 1,36 ± 4,7.5,64,–
"CC1(C)OC(c2ccc(F)cc2)=C(c2ccc(S(C)(=O)=O)cc2)C1=O [1h, 5-(4′-Fluorophenyl)-2,2-dimethyl-4-[4′-(methylsulfonyl)phenyl]-furan-3(2H)-one]",32,–,0,–,48.8,24,synergism,27.3,0.533 ± 0.015 <1,antagonistic effect; also recorded: antagonism,45.9,>1,antagonism,38.6,>1,100 ± 10,90,–,191 to 192
